Test results as given in ChEMBL document CHEMBL4433199, “First-in-class allosteric inhibitors of bacterial IMPDHs” (Eur J Med Chem, 2019).
Active and inactive are the calls of the source. The rule behind the calls is not given here.

How the values were obtained:
[1] = target: T1, Inosine-5'-monophosphate dehydrogenase (Pseudomonas aeruginosa (strain ATCC 15692 / DSM 22644 / CIP 104116 / JCM14847 / LMG 12228 / 1C / PRS 101 / PAO1)) (UniProt Q9HXM5); assay: Competitive inhibition of Pseudomonas aeruginosa IMPDH using IMP as substrate and NAD+ in presence of varying ATP incubated for 70 secs
T1 sequence (whole entry): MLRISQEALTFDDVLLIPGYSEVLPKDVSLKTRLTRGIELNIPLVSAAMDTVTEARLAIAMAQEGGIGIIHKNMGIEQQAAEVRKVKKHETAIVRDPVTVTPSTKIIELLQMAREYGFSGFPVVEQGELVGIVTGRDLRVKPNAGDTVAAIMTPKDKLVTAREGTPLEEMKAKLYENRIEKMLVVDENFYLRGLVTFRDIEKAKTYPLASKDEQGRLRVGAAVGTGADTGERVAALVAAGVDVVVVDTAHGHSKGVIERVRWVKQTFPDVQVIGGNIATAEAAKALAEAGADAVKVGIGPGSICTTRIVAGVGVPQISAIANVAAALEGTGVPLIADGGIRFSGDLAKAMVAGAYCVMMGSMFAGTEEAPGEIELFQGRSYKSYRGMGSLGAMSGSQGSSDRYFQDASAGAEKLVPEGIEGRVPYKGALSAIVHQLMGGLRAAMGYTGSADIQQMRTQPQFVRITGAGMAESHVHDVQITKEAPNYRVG

[2] = target: T2, Inosine-5'-monophosphate dehydrogenase (Pseudomonas aeruginosa (strain ATCC 15692 / DSM 22644 / CIP 104116 / JCM14847 / LMG 12228 / 1C / PRS 101 / PAO1), UniProt Q9HXM5); assay: Inhibition of Pseudomonas aeruginosa IMPDH using IMP as substrate in the presence of NAD+ incubated for 70 secs
T2 sequence (Q9HXM5 whole entry): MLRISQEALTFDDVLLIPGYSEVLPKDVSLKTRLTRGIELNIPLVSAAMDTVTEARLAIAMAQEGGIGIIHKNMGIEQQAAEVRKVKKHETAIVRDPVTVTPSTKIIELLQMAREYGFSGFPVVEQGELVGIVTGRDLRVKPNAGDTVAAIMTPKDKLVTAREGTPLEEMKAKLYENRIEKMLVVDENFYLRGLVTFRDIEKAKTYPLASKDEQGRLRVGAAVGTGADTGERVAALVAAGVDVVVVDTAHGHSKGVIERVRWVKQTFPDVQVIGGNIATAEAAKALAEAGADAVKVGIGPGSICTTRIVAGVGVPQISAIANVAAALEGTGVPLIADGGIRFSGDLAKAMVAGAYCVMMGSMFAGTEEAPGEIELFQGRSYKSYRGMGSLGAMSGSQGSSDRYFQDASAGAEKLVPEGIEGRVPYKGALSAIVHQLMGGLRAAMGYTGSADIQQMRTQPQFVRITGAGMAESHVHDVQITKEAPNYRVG

[3] = target: T1, Inosine-5'-monophosphate dehydrogenase (Pseudomonas aeruginosa (strain ATCC 15692 / DSM 22644 / CIP 104116 / JCM14847 / LMG 12228 / 1C / PRS 101 / PAO1)); assay: Inhibition of Pseudomonas aeruginosa IMPDH at 18.2 uM using IMP as substrate in the presence of NAD+ incubated for 70 secs relative to control
[4] = target: T1, Inosine-5'-monophosphate dehydrogenase (Pseudomonas aeruginosa (strain ATCC 15692 / DSM 22644 / CIP 104116 / JCM14847 / LMG 12228 / 1C / PRS 101 / PAO1)); assay: Inhibition of Pseudomonas aeruginosa IMPDH at 40 uM using IMP as substrate in the presence of NAD+ incubated for 70 secs relative to control
[5] = target: T1, Inosine-5'-monophosphate dehydrogenase (Pseudomonas aeruginosa (strain ATCC 15692 / DSM 22644 / CIP 104116 / JCM14847 / LMG 12228 / 1C / PRS 101 / PAO1)); assay: Inhibition of Pseudomonas aeruginosa IMPDH at 38.5 uM using IMP as substrate in the presence of NAD+ incubated for 70 secs relative to control
[6] = target: T1, Inosine-5'-monophosphate dehydrogenase (Pseudomonas aeruginosa (strain ATCC 15692 / DSM 22644 / CIP 104116 / JCM14847 / LMG 12228 / 1C / PRS 101 / PAO1)); assay: Inhibition of Pseudomonas aeruginosa IMPDH at 57.4 uM using IMP as substrate in the presence of NAD+ incubated for 70 secs relative to control
[7] = target: T1, Inosine-5'-monophosphate dehydrogenase (Pseudomonas aeruginosa (strain ATCC 15692 / DSM 22644 / CIP 104116 / JCM14847 / LMG 12228 / 1C / PRS 101 / PAO1)); assay: Inhibition of Pseudomonas aeruginosa IMPDH assessed as Km for IMP at 10 uM using IMP as substrate in presence of 2 mM NAD+ and 0.2 mM MgATP (reference value: 483 +/- 65 microM)
[8] = target: T1, Inosine-5'-monophosphate dehydrogenase (Pseudomonas aeruginosa (strain ATCC 15692 / DSM 22644 / CIP 104116 / JCM14847 / LMG 12228 / 1C / PRS 101 / PAO1)); assay: Inhibition of Pseudomonas aeruginosa IMPDH at 37.1 uM using IMP as substrate in the presence of NAD+ incubated for 70 secs relative to control
[9] = target: T1, Inosine-5'-monophosphate dehydrogenase (Pseudomonas aeruginosa (strain ATCC 15692 / DSM 22644 / CIP 104116 / JCM14847 / LMG 12228 / 1C / PRS 101 / PAO1)); assay: Inhibition of Pseudomonas aeruginosa IMPDH at 41.5 uM using IMP as substrate in the presence of NAD+ incubated for 70 secs relative to control
[10] = target: T1, Inosine-5'-monophosphate dehydrogenase (Pseudomonas aeruginosa (strain ATCC 15692 / DSM 22644 / CIP 104116 / JCM14847 / LMG 12228 / 1C / PRS 101 / PAO1)); assay: Inhibition of Pseudomonas aeruginosa IMPDH at 48.2 uM using IMP as substrate in the presence of NAD+ incubated for 70 secs relative to control
[11] = target: T1, Inosine-5'-monophosphate dehydrogenase (Pseudomonas aeruginosa (strain ATCC 15692 / DSM 22644 / CIP 104116 / JCM14847 / LMG 12228 / 1C / PRS 101 / PAO1)); assay: Non-competitive inhibition of Pseudomonas aeruginosa IMPDH using IMP as substrate and NAD+ in presence of ATP incubated for 70 secs
[12] = target: T1, Inosine-5'-monophosphate dehydrogenase (Pseudomonas aeruginosa (strain ATCC 15692 / DSM 22644 / CIP 104116 / JCM14847 / LMG 12228 / 1C / PRS 101 / PAO1)); assay: Inhibition of Pseudomonas aeruginosa IMPDH at 43.4 uM using IMP as substrate in the presence of NAD+ incubated for 70 secs relative to control
[13] = target: T1, Inosine-5'-monophosphate dehydrogenase (Pseudomonas aeruginosa (strain ATCC 15692 / DSM 22644 / CIP 104116 / JCM14847 / LMG 12228 / 1C / PRS 101 / PAO1)); assay: Inhibition of Pseudomonas aeruginosa IMPDH at 47.2 uM using IMP as substrate in the presence of NAD+ incubated for 70 secs relative to control
[14] = target: T1, Inosine-5'-monophosphate dehydrogenase (Pseudomonas aeruginosa (strain ATCC 15692 / DSM 22644 / CIP 104116 / JCM14847 / LMG 12228 / 1C / PRS 101 / PAO1)); assay: Inhibition of Pseudomonas aeruginosa IMPDH assessed as Km for IMP at 20 uM using IMP as substrate in presence of 2 mM NAD+ and 0.2 mM MgATP (reference value: 483 +/- 65 microM)
[15] = target: T1, Inosine-5'-monophosphate dehydrogenase (Pseudomonas aeruginosa (strain ATCC 15692 / DSM 22644 / CIP 104116 / JCM14847 / LMG 12228 / 1C / PRS 101 / PAO1)); assay: Inhibition of Pseudomonas aeruginosa IMPDH at 55.9 uM using IMP as substrate in the presence of NAD+ incubated for 70 secs relative to control
[16] = target: T1, Inosine-5'-monophosphate dehydrogenase (Pseudomonas aeruginosa (strain ATCC 15692 / DSM 22644 / CIP 104116 / JCM14847 / LMG 12228 / 1C / PRS 101 / PAO1)); assay: Inhibition of Pseudomonas aeruginosa IMPDH at 47.1 uM using IMP as substrate in the presence of NAD+ incubated for 70 secs relative to control
[17] = target: T1, Inosine-5'-monophosphate dehydrogenase (Pseudomonas aeruginosa (strain ATCC 15692 / DSM 22644 / CIP 104116 / JCM14847 / LMG 12228 / 1C / PRS 101 / PAO1)); assay: Inhibition of Pseudomonas aeruginosa IMPDH at 55.6 uM using IMP as substrate in the presence of NAD+ incubated for 70 secs relative to control

COc1cc(-c2ccc(/N=N/c3ccc4c(S(=O)(=O)O)cc(S(=O)(=O)O)c(N)c4c3O)c(OC)c2)ccc1/N=N/c1ccc2c(S(=O)(=O)O)cc(S(=O)(=O)O)c(N)c2c1O [CHICAGO SKY BLUE SODIUM]
inhibition [1]: Active
IC50 ([2]; read-out: IC50): 1.6 µM
inhibition [3]: 92.2%

COc1ccc(CCNc2nc3cc(Cl)c(Cl)cc3nc2-n2nc(C)cc2C)cc1OC
inhibition [4]: 20%
inhibition [5]: 77.8%

N#CC1=C(N)Oc2[nH]c(=O)[nH]c(=O)c2C1c1ccc(Cl)cc1 (stereo not drawn)
inhibition [6]: 89.3%
inhibition [1]: Active
IC50 ([2]; read-out: IC50): 4 µM

CC(=O)Nc1ccc(C2C3=C(Nc4c2c(=O)[nH]c(=O)n4Cc2ccccc2)c2ccccc2C3=O)cc1 (stereo not drawn)
inhibition [1]: Active
IC50 ([2]; read-out: IC50): 2.8 µM
K0.5 [7]: 1310 µM
inhibition [8]: 93.8%

COc1ccc(Br)cc1-c1cc(C(=O)O)nc2[nH]nc(-c3ccc(C)cc3)c12
inhibition [1]: Active
IC50 ([2]; read-out: IC50): 11.7 µM
inhibition [9]: 79.9%

Cc1ccc(-n2c(=O)[nH]cc(C(=O)Nc3ccc(C(C)C)cc3)c2=O)cc1C
inhibition [10]: 75.4%
IC50 [2]: Not Active

O=C(CCS(=O)(=O)c1ccc2c(c1)SCC(=O)N2)NCCCc1ccccc1
inhibition [11]: Active
IC50 ([2]; read-out: IC50): 3.1 µM
inhibition [12]: 76.7%

CC(=O)N1CCOc2cc(S(=O)(=O)Nc3ccc(F)c(Cl)c3)ccc21
inhibition [1]: Active
IC50 ([2]; read-out: IC50): 17.1 µM
inhibition [13]: 81.5%
K0.5 [14]: 747 µM

COc1cccc(CNC(=O)Cn2ncc3ccccc32)c1OC
IC50 [2]: Not Active
inhibition [15]: 95.2%

CC(=O)Nc1ccc(-c2cc(C(=O)O)nc3[nH]nc(-c4ccc(C)cc4)c23)cc1
inhibition [1]: Active
IC50 ([2]; read-out: IC50): 23 µM
inhibition [16]: 78.3%

N#CC1=C(N)Oc2[nH]c(=O)[nH]c(=O)c2C1c1ccc([N+](=O)[O-])cc1 (stereo not drawn)
inhibition [1]: Active
IC50 ([2]; read-out: IC50): 7 µM
inhibition [17]: 87.8%
K0.5 [7]: 691 µM
